{"source": "paper PMC8119374", "about": "(Biochimie, 2021)", "molecular_target": "mitochondrial respiratory Complex I (Mus musculus, UniProt P03888+Q91WD5+Q9DC70)", "type": "biochemical", "data": [{"smiles": "Cc1cc(OCc2nnc(SC3CCCC3)n2-c2cccnc2)ccc1-c1ccc(S(C)(=O)=O)cc1", "note": "[NMS-873]", "values": [{"measurement": "IC50", "result": 471, "unit": "nM"}]}]}
